“And” between values parts separate entries of the source, which are not always exact repeats. Equal values may be shown once. Where a name gives a salt, the structure may show the parent alone. Read-outs that look alike come from different tables or passages of the source.
Columns and labels:
[1] = system: Rac1 glucosylation by TcdA in IMR90 cells; assay: Western blot analysis of Rac1 glucosylation in IMR90 cells, TcdA; type: cell-based, human; settings: 12.5–100 µM iminosugar, 1 nM TcdA, 6 h
Experimental: (§1) IMR90 cells were grown in EMEM with 10% FBS in 24-well plates inoculated at 50,000 cells/well. […] Next, TcdA (1 nM final) or TcdB (0.1 nM final) was added to each well and cells were incubated at 37 °C, 5% CO2 for 6 h. The cells were lysed with mammalian cell lysis buffer (Abcam) according to manufacturer’s instructions. Cell lysates (2 µg) were heated at 95 °C in XT-loading dye (Bio-rad) before being loaded on an SDS polyacrylamide gel. Following electrophoresis, samples were transferred to PVDF membrane using an iblot2 device (ThermoFisher), blocked with 1% milk in PBS 0.1% Tween 20 for 1 h at room temperature and probed with a 1/4000 dilution of anti-Rac1 (Mab102, Thermo Fisher) and 1/8000 of anti-GAPDH antibody (Abcam) for 1 h at room temperature. Following incubation with the primary antibody, the membrane was washed 3 times with PBS with 0.1% Tween20 and incubated with a 1/40,000 dilution of secondary antibody for 1 h. Following incubation with the secondary antibody, the membrane was washed 3 times in PBS 0.1% tween 20 before a final wash in PBS. […]

[2] = system: TcdA-induced cell rounding of Vero cells; assay: cells; type: cell-based; settings: Chlorocebus sabaeus, 2 h, read-out: Calculated IC50 cell rounding
[3] = system: Rac1 glucosylation by TcdB in IMR90 cells; assay: Western blot analysis of Rac1 glucosylation in IMR90 cells, TcdB; type: cell-based, human; settings: 12.5–100 µM iminosugar, 0.1 nM TcdB, 6 h
Experimental: as §1

TcdA-GTD = target: T1, TcdA-GTD (Clostridioides difficile, UniProt P16154); assay: biochemical; type: biochemical, Clostridium difficile
T1 construct: TcdA-GTD (amino acids 1–542); His6 (C); made in house; host or cells: E. coli One shot BL21 Star (DE3)

cell lines = assay: Cell toxicity of the iminosugars in the cell lines used; type: cell-based; settings: high treatment concentrations
[4] = system: TcdB-induced cell rounding of IMR90 cells; type: cell-based, human
[5] = system: TcdA-induced apoptosis of HT-29 cells; type: cell-based
TcdB-GTD [6] = target: T2, TcdB-GTD (Clostridioides difficile, UniProt P18177); type: binding, Clostridium difficile
T2 construct: C-terminal His-6 tagged TcdB-GTD (amino acids 1-546); His6 (C); made in house; host or cells: Escherichia coli One Shot BL21 Star (DE3)

[7] = target: T3, TcdB-GTD in the presence of UDP (Clostridioides difficile, UniProt P18177); assay: biochemical; type: binding, Clostridium difficile; settings: for Kd: ITC, 1 mM UDP
T3 construct: C-terminal His-6 tagged TcdB-GTD (amino acids 1-546); His6 (C); made in house; host or cells: Escherichia coli One Shot BL21 Star (DE3)

[8] = system: TcdA-induced cell rounding of IMR90 cells; type: cell-based, human
TcdB-GTD [9] = target: T2, TcdB-GTD; assay: biochemical; type: biochemical, Clostridium difficile
[10] = system: TcdB-induced cell rounding of Vero cells; assay: cells; type: cell-based; settings: Chlorocebus sabaeus, 1.5 h, read-out: Calculated IC50 cell rounding
TcdB-GTD [11] = target: T2, TcdB-GTD; assay: biochemical; set-up: species or system Clostridium difficile
Gaucher disease patients = system: Gaucher disease patients; set-up: method as in NCTs: 00433147; 00446550; 00813865; 00875160; settings: ref NCTs: 00433147, 00446550, 00813865, 00875160, cited from earlier work
[12] = set-up: method as in Khanna et al, FEBS journal, 2010, vol 277, p 1618; settings: after administration; ref Khanna et al, FEBS journal, 2010, vol 277, p 1618; cited from earlier work
C. sordelli lethal toxin = settings: cited from earlier work
TcdB-GTD [13] = settings: cited from earlier work
[14] = Ki TcdA-GTD glucosyltransferase activity
[15] = Ki TcdA-GTD glucosyltransferase activity, fixed concentration of UDP at 2 x Ki UDP
[16] = Ki TcdB-GTD glucosyltransferase activity
[17] = Ki TcdB-GTD glucosyltransferase activity, fixed concentration of UDP at 2 x Ki UDP
[18] = Ki TcdB-GTD glucohydrolase activity

T1 sequence (P16154 1-542): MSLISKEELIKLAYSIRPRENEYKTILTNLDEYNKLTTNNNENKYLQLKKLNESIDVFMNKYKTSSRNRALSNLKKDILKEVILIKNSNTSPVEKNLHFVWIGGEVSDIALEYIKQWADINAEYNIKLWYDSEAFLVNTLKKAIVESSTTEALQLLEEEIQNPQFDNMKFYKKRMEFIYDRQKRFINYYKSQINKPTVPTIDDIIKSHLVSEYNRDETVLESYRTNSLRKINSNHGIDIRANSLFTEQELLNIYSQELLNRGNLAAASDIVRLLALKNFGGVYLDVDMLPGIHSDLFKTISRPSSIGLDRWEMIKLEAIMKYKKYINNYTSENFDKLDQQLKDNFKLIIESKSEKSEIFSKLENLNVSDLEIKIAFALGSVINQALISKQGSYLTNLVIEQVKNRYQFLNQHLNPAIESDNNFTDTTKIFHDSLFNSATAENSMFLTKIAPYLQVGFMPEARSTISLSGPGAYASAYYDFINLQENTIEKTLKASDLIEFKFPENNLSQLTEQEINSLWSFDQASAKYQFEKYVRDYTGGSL
T2 sequence (P18177 1-546 limits assumed): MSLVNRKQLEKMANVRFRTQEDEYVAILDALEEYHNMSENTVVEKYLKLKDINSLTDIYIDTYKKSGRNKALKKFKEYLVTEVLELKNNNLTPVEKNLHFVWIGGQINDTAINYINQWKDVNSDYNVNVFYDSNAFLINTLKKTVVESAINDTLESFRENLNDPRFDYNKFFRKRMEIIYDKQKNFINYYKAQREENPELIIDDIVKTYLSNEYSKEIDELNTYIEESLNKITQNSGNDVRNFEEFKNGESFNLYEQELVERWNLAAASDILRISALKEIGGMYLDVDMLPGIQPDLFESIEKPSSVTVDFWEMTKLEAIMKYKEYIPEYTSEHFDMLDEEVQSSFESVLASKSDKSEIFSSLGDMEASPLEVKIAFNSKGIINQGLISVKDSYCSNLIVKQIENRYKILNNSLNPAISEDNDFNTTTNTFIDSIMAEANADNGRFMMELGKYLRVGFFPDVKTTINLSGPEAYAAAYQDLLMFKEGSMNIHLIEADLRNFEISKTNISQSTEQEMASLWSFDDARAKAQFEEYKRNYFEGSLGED
T3 sequence (P18177 1-546 limits assumed): as above

Structure (SMILES): OC[C@H]1CNC(O)[C@@H](O)[C@@H]1O (stereo partly shown) [Noeuromycin]
- Unglucosylated Rac1 (Mab102) versus total Rac1 [1]: dose-dependent reappearance of unglucosylated Rac1
- IC50 [2]: 9.6 ± 3.3 µM
- Unglucosylated Rac1 (Mab102) versus total Rac1 [3]: dose-dependent reappearance of unglucosylated Rac1
- fold improvement of inhibition constant for TcdA-GTD relative to TcdB-GTD (TcdA-GTD): 2.3 fold
- fold improvement of inhibition constant in the presence of UDP (TcdA-GTD): 23 fold
- Ki (TcdA-GTD; Ki TcdA-GTD GT activity, fixed concentration of UDP at 2 x Ki UDP): 0.21 ± 0.05 µM
- Ki (TcdA-GTD; [14]): 4.7 ± 0.2 µM
- Ki (TcdA-GTD; [15]): 0.214 ± 0.055 µM
- Cell toxicity (cell lines): no cell toxicity
- Effect on toxin-induced cell rounding [4]: prevented
- Effect on TcdA-induced apoptosis (Annexin V) [5]: prevented apoptosis
- Binding to TcdB-GTD alone (ITC) (TcdB-GTD [6]): no significant binding
- ΔH [7]: -21.8 ± 0.42 kJ/mol
- −TΔS [7]: 17.6 ± 1.3 kJ/mol
- Kd [7]: 0.18 µM
- Effect on toxin-induced cell rounding [8]: prevented
- Mode of inhibition versus UDP-glucose (TcdB-GTD [9]): uncompetitive
- fold improvement of inhibitory affinity in the presence of UDP (TcdB-GTD [9]): 4.8 fold
- fold less potent than isofagomine (TcdB-GTD [9]): 7.6 fold
- Ki (TcdB-GTD [9]; [16]): 10.6 ± 1 µM
- Ki (TcdB-GTD [9]; [17]): 4.4 ± 0.1 µM
- IC50 [10]: 13.6 ± 5.6 µM
- Ki (TcdB-GTD [11]; [18]): 12 ± 1.6 µM

Structure (SMILES): OC[C@H]1NC[C@H](O)[C@@H](O)[C@@H]1O [Deoxynojirimycin]
- Inhibition of TcdB-GTD GT activity (TcdB-GTD [9]): did not inhibit
- Ki (TcdB-GTD [9]; [16]): > 10000 µM
- Inhibition of TcdB-GTD GH activity (TcdB-GTD [11]): did not inhibit
- Ki (TcdB-GTD [11]; [18]): > 10000 µM

Structure (SMILES): O=C1O[C@H](CO)[C@@H](O)[C@H](O)[C@H]1O [Gluconolactone, D-gluconon-1,5-lactone]
- Ki (TcdB-GTD [9]; [16]): 440 µM
- Ki (TcdB-GTD [11]; [18]): 414 µM

Structure (SMILES): OC[C@H]1CNC[C@@H](O)[C@@H]1O [Isofagomine]
- Unglucosylated Rac1 (Mab102) versus total Rac1 [1]: dose-dependent reappearance of unglucosylated Rac1
- IC50 [2]: 5.5 ± 1.5 µM
- Unglucosylated Rac1 (Mab102) versus total Rac1 [3]: dose-dependent reappearance of unglucosylated Rac1
- Mode of inhibition versus UDP-glucose (TcdA-GTD): uncompetitive inhibition
- fold improvement of inhibition constant for TcdA-GTD relative to TcdB-GTD (TcdA-GTD): 5.8 fold
- fold improvement of inhibition constant in the presence of UDP (TcdA-GTD): 15 fold
- Ki (TcdA-GTD; [14]): 0.24 ± 0.01 µM
- Ki (TcdA-GTD; [15]): 0.016 ± 0.002 µM
- Cell toxicity (cell lines): no cell toxicity
- Effect on toxin-induced cell rounding [4]: prevented
- Effect on TcdA-induced apoptosis (Annexin V) [5]: prevented apoptosis
- Binding to TcdB-GTD alone (ITC) (TcdB-GTD [6]): no significant binding
- Tolerability of oral doses (Gaucher disease patients; 225 mg/day oral, Gaucher patients): well tolerated
- Reduction in Gaucher disease symptoms (Gaucher disease patients; majority of patients): did not show a significant reduction
- ΔH [7]: -43.1 ± 0.42 kJ/mol
- −TΔS [7]: 2.1 ± 0.84 kJ/mol
- Kd [7]: 0.067 µM and 0.0669 µM
- Effect on toxin-induced cell rounding [8]: prevented
- Time to maximal levels in plasma, liver, spleen and brain [12]: ≤ 1 h
- Mode of inhibition versus UDP-glucose (TcdB-GTD [9]): uncompetitive
- fold improvement of inhibitory affinity in the presence of UDP (TcdB-GTD [9]): 2.4 fold
- Ki (TcdB-GTD [9]; [16]): 1.4 ± 0.1 µM
- Ki (TcdB-GTD [9]; [17]): 0.29 ± 0.06 µM
- remaining activity at 0.015 µM (TcdB-GTD [9]; read-out: % enzyme activity): 99.7%
- remaining activity at 0.061 µM (TcdB-GTD [9]; read-out: % enzyme activity): 100%
- remaining activity at 0.24 µM (TcdB-GTD [9]; read-out: % enzyme activity): 88.2%
- remaining activity at 0.48 µM (TcdB-GTD [9]; read-out: % enzyme activity): 95.9%
- remaining activity at 1.95 µM (TcdB-GTD [9]; read-out: % enzyme activity): 72%
- remaining activity at 3.9 µM (TcdB-GTD [9]; read-out: % enzyme activity): 37.8%
- remaining activity at 3.906 µM (TcdB-GTD [9]; read-out: % enzyme activity): 15.8%
- remaining activity at 7.81 µM (TcdB-GTD [9]; read-out: % enzyme activity): 19.7%
- remaining activity at 15.62 µM (TcdB-GTD [9]; read-out: % enzyme activity): 8.07%
- remaining activity at […] (TcdB-GTD [9]; read-out: % enzyme activity): 87.8% and 80.5% and 43.4%
- IC50 [10]: 8.3 ± 3.6 µM
- Ki (TcdB-GTD [11]; [18]): 4.8 ± 0.2 µM

Structure (SMILES): O[C@H]1[C@H]2[C@H](O)CCCN2C[C@H]1O [Swainsonine]
- Ki (TcdB-GTD [9]; Ki TcdB-GTD GT activity): > 10000 µM
- Ki (TcdB-GTD [9]; [16]): > 10000 µM
- Ki (TcdB-GTD [11]; Ki TcdB-GTD GH activity): > 10000 µM
- Ki (TcdB-GTD [11]; [18]): > 10000 µM

Structure (SMILES): O[C@H]1[C@H](O)[C@@H](O)CN2CC[C@H](O)[C@H]12 [Castanospermine]
- IC50 (C. sordelli lethal toxin): ~100 µM
- Ki (TcdB-GTD [9]; [16]): 680 ± 20 µM
- remaining activity at 1000 µM (TcdB-GTD [9]; read-out: % enzyme activity): 25.9%
- remaining activity at 4000 µM (TcdB-GTD [9]; read-out: % enzyme activity): 0%
- IC50 (TcdB-GTD [13]): ~400 µM
- Ki (TcdB-GTD [11]; [18]): 3400 ± 200 µM

Structure (SMILES): O.O=c1ccn([C@@H]2O[C@H](COP(=O)([O-])OP(=O)([O-])O)[C@@H](O)[C@H]2O)c(=O)[nH]1.[Na+].[Na+] [UDP, Uridine 5’diphosphate disodium salt hydrate]
- ΔH (TcdB-GTD [6]): -59.8 ± 16.3 kJ/mol
- −TΔS (TcdB-GTD [6]): 34.3 ± 15.9 kJ/mol
- Mode of inhibition versus UDP-glucose (TcdB-GTD [9]): competitive inhibition
- remaining activity at 4.84 µM (TcdB-GTD [9]; read-out: % enzyme activity): 86.1%
- remaining activity at 19.37 µM (TcdB-GTD [9]; read-out: % enzyme activity): 65.3%
- remaining activity at 78 µM (TcdB-GTD [9]; read-out: % enzyme activity): 19.7%
- remaining activity at […] (TcdB-GTD [9]; read-out: % enzyme activity): 99.1%

Structure (SMILES): OC[C@H]1OC(O)[C@H](O)[C@@H](O)[C@@H]1O (stereo partly shown) [Glucose]
- Inhibition (TcdB-GTD [9]): no significant inhibition
- Inhibition of TcdB-GTD (TcdB-GTD [13]; ref 42 (numbering of the author response)): no significant inhibition

Structure (SMILES): OC[C@@H]1[C@@H](O)[C@H](O)[C@H]2[C@@H](O)CCN21 [Australine HCl, australine hydrochloride]
- remaining activity at 500 µM (TcdB-GTD [9]; read-out: % enzyme activity): 73.4%
- remaining activity at 1000 µM (TcdB-GTD [9]; read-out: % enzyme activity): 45.1%
- remaining activity at 2000 µM (TcdB-GTD [9]; read-out: % enzyme activity): 21.8%
- remaining activity at 4000 µM (TcdB-GTD [9]; read-out: % enzyme activity): 0%
- remaining activity at […] (TcdB-GTD [9]; read-out: % enzyme activity): 100%
- Ki (TcdB-GTD [9]; read-out: Ki TcdB-GTD glucosyltransferase activity): 1570 ± 430 µM
- Ki (TcdB-GTD [11]; read-out: Ki TcdB-GTD GH activity, no inhibition): > 10000 µM
- Ki (TcdB-GTD [11]; read-out: Ki TcdB-GTD glucohydrolase activity): > 10000 µM
